Measured values: US20260001928A1 (CORTERIA PHARMACEUTICALS, priority 2022, published 2026)
pEC50: −log10 of the molar value. *1 amine or outer side, *2 acyl side, *3 side chain or, on linkers, in order; H or OH if unused. Where a SMILES comes first, the peptide text is derived from it. Side-chain parts run from the residue outwards. [ ]: non-standard residue; d: D form. The star is where a group is joined. C18 diacid = O=C(O)CCCCCCCCCCCCCCCCC(=O)*; γGlu = O=C(O)[C@H](CCC(=O)[*:2])N[*:1]; NMeI = CC[C@H](C)[C@H](NC)C(=O)O; Ac6c = NC1(C(=O)O)CCCCC1; Ac5c = NC1(C(=O)O)CCCC1; Aib = CC(C)(N)C(=O)O

What was measured:
[1] = target: T1, CFR1R receptor (Homo sapiens, UniProt P34998); experiment: Activity at anti-target CFR1R receptor, cAMP assay in CRF1R-overexpression CHO-K1 cells; format: cell-based; conditions: 100% = Sauvagine at 100 nM; for pEC50: cAMP
T1 construct: host or cells: CHO-K1 (clone 2)
T1 sequence (P34998 24-415): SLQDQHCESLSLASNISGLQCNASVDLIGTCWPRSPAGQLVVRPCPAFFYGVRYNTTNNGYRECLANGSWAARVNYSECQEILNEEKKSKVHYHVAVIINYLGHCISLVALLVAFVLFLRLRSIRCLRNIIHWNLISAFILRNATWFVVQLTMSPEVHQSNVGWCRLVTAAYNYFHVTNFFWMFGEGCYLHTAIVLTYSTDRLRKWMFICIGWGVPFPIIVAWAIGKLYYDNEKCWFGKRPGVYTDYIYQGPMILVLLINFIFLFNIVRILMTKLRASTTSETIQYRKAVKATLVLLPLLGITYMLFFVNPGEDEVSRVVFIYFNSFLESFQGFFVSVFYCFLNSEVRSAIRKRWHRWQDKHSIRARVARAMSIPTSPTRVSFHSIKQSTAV
Outline: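 The method mirrors that used with TeloHAEC cells. Here, thawed clone 2 cells seeded at 4000 cells/well are tested, and 100 nM Sauvagine sets the top of the activation scale.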

[2] = target: T2, human CRF2a receptor (Homo sapiens, UniProt Q13324); experiment: Activity at human CRF2a receptor, cAMP functional assay in TeloHEAC cells; format: cell-based; conditions: TeloHEAC cells stably expressing human CRF2a receptor, relative to urocortin 2 (100 nM = 100%)
T2 construct: expressed in transfected cells; host or cells: TeloHEAC cells
T2 sequence (Q13324 1-411): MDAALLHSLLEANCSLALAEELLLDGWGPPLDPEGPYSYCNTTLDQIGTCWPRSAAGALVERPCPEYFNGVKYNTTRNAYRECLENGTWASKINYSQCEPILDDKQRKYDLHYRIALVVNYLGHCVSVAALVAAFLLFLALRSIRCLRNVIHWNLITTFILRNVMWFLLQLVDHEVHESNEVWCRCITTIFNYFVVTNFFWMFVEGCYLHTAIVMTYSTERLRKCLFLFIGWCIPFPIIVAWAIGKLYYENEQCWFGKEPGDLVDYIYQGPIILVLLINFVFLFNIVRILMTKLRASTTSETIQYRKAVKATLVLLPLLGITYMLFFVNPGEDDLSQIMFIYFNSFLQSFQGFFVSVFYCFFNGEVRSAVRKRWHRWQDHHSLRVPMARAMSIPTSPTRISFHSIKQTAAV
Outline: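 TeloHEAC cells stably expressing human CRF2a (10000 cells/well, suspended in HBSS/20 mM HEPES with 2 mM IBMX) were exposed to compounds for 30 min at 37 °C. cAMP was read as the 665/620 nm fluorescence ratio after 1 h at room temperature. EC50 was derived relative to 100 nM urocortin 2, set as 100%.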

| Emax (% I) [1] | pEC50 [1] | pEC50 [2] | SMILES |
| --- | --- | --- | --- |
| 4 % I | < 6.60 | 10.10 | CC[C@H](C)[C@H](NC(C)=O)C(=O)N[C@H](C(=O)N[C@@H](CC(C)C)C(=O)N[C@@H](CO)C(=O)N[C@@H](CC(C)C)C(=O)N[C@@H](CC(=O)O)C(=O)N[C@@H](C(=O)N1CCC[C@H]1C(=O)N[C@H](C(=O)N[C@@H](CCCCN)C(=O)N[C@@H](CC(C)C)C(=O)N[C@@H](CCCCNC(=O)CC[C@H](NC(=O)CCCCCCCCCCCCCCCCC(=O)O)C(=O)O)C(=O)N[C@@H](CCCCN)C(=O)N[C@H](C(=O)N[C@@H](CC(C)C)C(=O)N[C@@H](CC(C)C)C(=O)N[C@@H](CCC(=O)O)C(=O)N[C@@H](CCC(N)=O)C(=O)N[C@@H](CCC(=O)O)C(=O)N[C@@H](CCCCN)C(=O)N[C@@H](CCC(N)=O)C(=O)N[C@@H](CCCCN)C(=O)N[C@@H](CCCCN)C(=O)N[C@@H](CCC(N)=O)C(=O)N[C@@H](CCCNC(=N)N)C(=O)N[C@@H](CCC(=O)O)C(=O)N[C@@H](CCC(N)=O)C(=O)N[C@@H](C)C(=O)N[C@@H](CCC(=O)O)C(=O)N[C@H](C(=O)N[C@@H](CC(N)=O)C(=O)N[C@@H](CCC(=O)O)C(=O)N[C@@H](CCC(N)=O)C(=O)N[C@H](C(=O)N[C@@H](CC(C)C)C(=O)N[C@@H](C)C(=O)N[C@@H](CCC(N)=O)C(=O)N[C@H](C(N)=O)C(C)C)[C@@H](C)CC)[C@@H](C)O)[C@@H](C)CC)[C@@H](C)CC)C(C)C)C(C)C [compound 130] (Ac-IVLSLD[dV]PIKLK([γGlu-C18 diacid])KILLEQEKQKKQREQAETNEQILAQV-NH2) |
| 10 % I | < 6.60 | 9.30 | CC[C@H](C)[C@H](NC(C)=O)C(=O)N[C@H](C(=O)N[C@@H](CC(C)C)C(=O)N[C@@H](CO)C(=O)N[C@@H](CC(C)C)C(=O)N[C@@H](CC(=O)O)C(=O)N[C@@H](C(=O)N1CCC[C@H]1C(=O)N[C@H](C(=O)N[C@@H](CCCCN)C(=O)N[C@@H](CC(C)C)C(=O)N[C@@H](CCCCNC(=O)CC[C@H](NC(=O)CCCCCCCCCCCCCCCCC(=O)O)C(=O)O)C(=O)N[C@@H](CCCCN)C(=O)N[C@H](C(=O)N[C@@H](CC(C)C)C(=O)N[C@@H](CC(C)C)C(=O)N[C@@H](CCC(=O)O)C(=O)N[C@@H](CCC(N)=O)C(=O)N[C@@H](CCC(=O)O)C(=O)N[C@@H](CCCCN)C(=O)N[C@@H](CCC(N)=O)C(=O)N[C@@H](CCCCN)C(=O)N[C@@H](CCCCN)C(=O)N[C@@H](CCC(N)=O)C(=O)N[C@@H](CCCNC(=N)N)C(=O)N[C@@H](CCC(=O)O)C(=O)N[C@@H](CCC(N)=O)C(=O)N[C@@H](C)C(=O)N[C@@H](CCC(=O)O)C(=O)N[C@H](C(=O)N[C@@H](CC(N)=O)C(=O)NC1(C(=O)N[C@@H](CCC(N)=O)C(=O)N[C@H](C(=O)N[C@@H](CC(C)C)C(=O)N[C@@H](C)C(=O)N[C@@H](CCC(N)=O)C(=O)N[C@H](C(N)=O)C(C)C)[C@@H](C)CC)CCCCC1)[C@@H](C)O)[C@@H](C)CC)[C@@H](C)CC)C(C)C)C(C)C [compound 134] (Ac-IVLSLD[dV]PIKLK([γGlu-C18 diacid])KILLEQEKQKKQREQAETN[Ac6c]QILAQV-NH2) |
| 15 % I | < 6.60 | 9.72 | CC[C@H](C)[C@H](NC(C)=O)C(=O)N[C@H](C(=O)N[C@@H](CC(C)C)C(=O)N[C@@H](CO)C(=O)N[C@@H](CC(C)C)C(=O)N[C@@H](CC(=O)O)C(=O)N[C@@H](C(=O)N1CCC[C@H]1C(=O)N[C@H](C(=O)N[C@@H](CCCCN)C(=O)N[C@@H](CC(C)C)C(=O)N[C@@H](CCCCNC(=O)CC[C@H](NC(=O)CCCCCCCCCCCCCCCCC(=O)O)C(=O)O)C(=O)N[C@@H](CCCCN)C(=O)N[C@H](C(=O)N[C@@H](CC(C)C)C(=O)N[C@@H](CC(C)C)C(=O)N[C@@H](CCC(=O)O)C(=O)N[C@@H](CCC(N)=O)C(=O)N[C@@H](CCC(=O)O)C(=O)N[C@@H](CCCCN)C(=O)N[C@@H](CCC(N)=O)C(=O)N[C@@H](CCCCN)C(=O)N[C@@H](CCCCN)C(=O)N[C@@H](CCC(N)=O)C(=O)N[C@@H](CCCNC(=N)N)C(=O)N[C@@H](CCC(=O)O)C(=O)N[C@@H](CCC(N)=O)C(=O)N[C@@H](C)C(=O)N[C@@H](CCC(=O)O)C(=O)N[C@H](C(=O)N[C@@H](CC(N)=O)C(=O)NC1(C(=O)N[C@@H](CCC(N)=O)C(=O)N[C@H](C(=O)N[C@@H](CC(C)C)C(=O)N[C@@H](C)C(=O)N[C@@H](CCC(N)=O)C(=O)N[C@H](C(N)=O)C(C)C)[C@@H](C)CC)CCCC1)[C@@H](C)O)[C@@H](C)CC)[C@@H](C)CC)C(C)C)C(C)C [compound 135] (Ac-IVLSLD[dV]PIKLK([γGlu-C18 diacid])KILLEQEKQKKQREQAETN[Ac5c]QILAQV-NH2) |
| 9 % I | < 6.60 | 10.15 | CC[C@H](C)[C@H](NC)C(=O)N[C@H](C(=O)N[C@@H](CC(C)C)C(=O)N[C@@H](CO)C(=O)N[C@@H](CC(C)C)C(=O)N[C@@H](CC(=O)O)C(=O)N[C@@H](C(=O)N1CCC[C@H]1C(=O)N[C@H](C(=O)N[C@@H](CCCCN)C(=O)N[C@@H](CC(C)C)C(=O)N[C@@H](CCCCNC(=O)CC[C@H](NC(=O)CCCCCCCCCCCCCCCCC(=O)O)C(=O)O)C(=O)N[C@@H](CCCCN)C(=O)N[C@H](C(=O)N[C@@H](CC(C)C)C(=O)N[C@@H](CC(C)C)C(=O)N[C@@H](CCC(=O)O)C(=O)N[C@@H](CCC(N)=O)C(=O)N[C@@H](CCC(=O)O)C(=O)N[C@@H](CCCCN)C(=O)N[C@@H](CCC(N)=O)C(=O)N[C@@H](CCCCN)C(=O)N[C@@H](CCCCN)C(=O)N[C@@H](CCC(N)=O)C(=O)N[C@@H](CCCNC(=N)N)C(=O)N[C@@H](CCC(=O)O)C(=O)N[C@@H](CCC(N)=O)C(=O)N[C@@H](C)C(=O)N[C@@H](CCC(=O)O)C(=O)N[C@H](C(=O)N[C@@H](CC(N)=O)C(=O)NC(C)(C)C(=O)N[C@@H](CCC(N)=O)C(=O)N[C@H](C(=O)N[C@@H](CC(C)C)C(=O)N[C@@H](C)C(=O)N[C@@H](CCC(N)=O)C(=O)N[C@H](C(N)=O)C(C)C)[C@@H](C)CC)[C@@H](C)O)[C@@H](C)CC)[C@@H](C)CC)C(C)C)C(C)C [compound 137] (H-[NMeI]VLSLD[dV]PIKLK([γGlu-C18 diacid])KILLEQEKQKKQREQAETN[Aib]QILAQV-NH2) |
| 10 % I | < 6.60 | 10.30 | CC[C@H](C)[C@H](NC)C(=O)N[C@H](C(=O)N[C@@H](CC(C)C)C(=O)N[C@@H](CO)C(=O)N[C@@H](CC(C)C)C(=O)N[C@@H](CC(=O)O)C(=O)N[C@@H](C(=O)N1CCC[C@H]1C(=O)N[C@H](C(=O)N[C@@H](CCCCN)C(=O)N[C@@H](CC(C)C)C(=O)N[C@@H](CCCCNC(=O)CC[C@H](NC(=O)CCCCCCCCCCCCCCCCC(=O)O)C(=O)O)C(=O)N[C@@H](CCCCN)C(=O)N[C@H](C(=O)N[C@@H](CC(C)C)C(=O)N[C@@H](CC(C)C)C(=O)N[C@@H](CCC(=O)O)C(=O)N[C@@H](CCC(N)=O)C(=O)N[C@@H](CCC(=O)O)C(=O)N[C@@H](CCCCN)C(=O)N[C@@H](CCC(N)=O)C(=O)N[C@@H](CCCCN)C(=O)N[C@@H](CCCCN)C(=O)N[C@@H](CCC(N)=O)C(=O)N[C@@H](CCCNC(=N)N)C(=O)N[C@@H](CCC(=O)O)C(=O)N[C@@H](CCC(N)=O)C(=O)N[C@@H](C)C(=O)N[C@@H](CCC(=O)O)C(=O)N[C@H](C(=O)N[C@@H](CC(N)=O)C(=O)N[C@@H](C)C(=O)N[C@@H](CCC(N)=O)C(=O)N[C@H](C(=O)N[C@@H](CC(C)C)C(=O)N[C@@H](C)C(=O)N[C@@H](CCC(N)=O)C(=O)N[C@H](C(N)=O)C(C)C)[C@@H](C)CC)[C@@H](C)O)[C@@H](C)CC)[C@@H](C)CC)C(C)C)C(C)C [compound 138] (H-[NMeI]VLSLD[dV]PIKLK([γGlu-C18 diacid])KILLEQEKQKKQREQAETNAQILAQV-NH2) |
